Reference: PMC4839669, “Heterologous Expression and Biochemical Characterization of Two Lipoxygenases in Oriental Melon, Cucumis melo var. makuwa Makino” (PLoS ONE, 2016)

Target: T1, CmLOX10 (Cucumis melo, UniProt A0A125S6K7)
T1 construct: gene LOX10; full-length 902 residues incl. predicted 37-residue transit peptide; N-terminal His tag (pET-30a), E. coli BL21(DE3), Ni-NTA
T1 sequence (A0A125S6K7 1-902): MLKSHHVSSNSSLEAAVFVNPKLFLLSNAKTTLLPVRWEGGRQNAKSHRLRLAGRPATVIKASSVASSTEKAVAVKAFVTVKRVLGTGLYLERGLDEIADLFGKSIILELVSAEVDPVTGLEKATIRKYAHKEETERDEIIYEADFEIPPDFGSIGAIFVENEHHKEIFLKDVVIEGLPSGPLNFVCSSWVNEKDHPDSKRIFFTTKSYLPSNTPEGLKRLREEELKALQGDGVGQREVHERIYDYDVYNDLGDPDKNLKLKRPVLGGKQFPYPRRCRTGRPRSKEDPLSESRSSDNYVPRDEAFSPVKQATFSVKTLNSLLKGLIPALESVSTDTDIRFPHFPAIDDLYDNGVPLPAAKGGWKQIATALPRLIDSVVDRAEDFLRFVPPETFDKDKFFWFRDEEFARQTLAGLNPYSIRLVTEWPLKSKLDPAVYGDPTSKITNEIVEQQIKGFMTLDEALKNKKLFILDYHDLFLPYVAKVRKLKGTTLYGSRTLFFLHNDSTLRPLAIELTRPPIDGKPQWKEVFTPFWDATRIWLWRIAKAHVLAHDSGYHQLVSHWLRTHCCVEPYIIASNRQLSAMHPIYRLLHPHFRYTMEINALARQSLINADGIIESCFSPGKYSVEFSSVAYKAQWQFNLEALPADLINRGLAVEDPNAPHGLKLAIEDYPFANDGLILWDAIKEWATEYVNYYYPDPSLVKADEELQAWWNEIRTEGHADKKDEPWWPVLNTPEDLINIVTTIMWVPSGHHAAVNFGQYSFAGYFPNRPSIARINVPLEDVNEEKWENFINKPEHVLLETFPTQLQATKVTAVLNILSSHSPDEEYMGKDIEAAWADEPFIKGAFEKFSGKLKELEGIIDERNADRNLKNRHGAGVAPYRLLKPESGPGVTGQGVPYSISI
Assay: conjugated diene formation at […] nm, Michaelis-Menten
Type: biochemical
Settings: 25 °C, saturating oxygen, 16.5-330 μM substrate; pH of kinetics not stated explicitly (optimum pH 5.0)

Km [µM]	SMILES
230	CCCCC/C=C\C/C=C\CCCCCCCC(=O)O [linoleic acid]
140	CC/C=C\C/C=C\C/C=C\CCCCCCCC(=O)O [linolenic acid]
